Measured values from EP2818472A1, “Imidazo[4,5-c]pyridine and pyrrolo[3,2-c]pyridine compounds as G-protein-coupled receptor kinase 5 (GRK5) modulators” (Max-Planck-Gesellschaft zur Förderung der Wissenschaften …, priority 2013, dated 2014).

Test system: beta-TC6 cells
Experiment: Insulin HTRF assay (relative activity Ar) in beta-TC6 cells
Format: cell-based, mouse
Conditions: Mus musculus, Beta-TC6, 4 h, insulin HTRF, supernatant of beta-TC6 cells, incubation with test compound at 37°C for 2, 3, 4h; read-out: Ar (relative activity)
Outline: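 beta-TC6 cells (15k/well, seeded 24 or 48 h) washed, then exposed to compound in induction buffer (0.5% DMSO final) for 2, 3 or 4 h at 37°C.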

Structure (SMILES)	Emax
COc1ccc(-c2nc3c(N4CCN(C)CC4)nccc3[nH]2)cc1OC [Compound 346, 2-(3,4-dimethoxyphenyl)-4-(4-methylpiperazin-1-yl)-1H-imidazo[4,5-c]pyridine]	50 to 100%
COc1ccc(Nc2cc3c(cn2)cc(-c2cccc(N(C)C(C)=O)c2)n3C)cn1 [Compound 161, N-[3-[6-[(6-methoxy-3-pyridyl)amino]-1-methyl-pyrrolo[3,2-c]pyridin-2-yl]phenyl]-N-methyl-acetamide]	50 to 100%
COc1ccc(Nc2nccc3c2cc(-c2ccc(N(C)C)cc2)n3C)cc1O [Compound 228, 5-[[2-(4-dimethylaminophenyl)-1-methyl-pyrrolo[3,2-c]pyridin-4-yl]amino]-2-methoxy-phenol]	50 to 100%
COc1ccc(Nc2nccc3[nH]c(-c4ccsc4)cc23)cc1OC [Compound 253, N-(3,4-dimethoxyphenyl)-2-(3-thienyl)-1H-pyrrolo[3,2-c]pyridin-4-amine]	50 to 100%
COc1cc(Nc2nccc3c2cc(-c2ccc(C(=O)N(C)C)cc2)n3C)cc(C(F)(F)F)c1 [Compound 220, N,N-dimethyl-4-[1-methyl-4-(3-methoxy-5-(trifuloromethyl)phenylamino)pyrrolo[3,2-c]pyridin-2-yl]benzamide]	0 to 30%
COc1ccc(Nc2cc3c(cn2)nc(NCc2cccc(C)c2)n3C)cc1OC [Compound 578, N6-(3,4-dimethoxyphenyl)-1-methyl-N2-(m-tolylmethyl)imidazo[4,5-c]pyridine-2,6-diamine]	50 to 100%
COc1ccc(Nc2cc3c(cn2)cc(-c2cccnc2)n3C)cc1OC [Compound 85, N-(3,4-dimethoxyphenyl)-1-methyl-2-(3-pyridyl)pyrrolo[3,2-c]pyridin-6-amine]	50 to 100%
COc1ncccc1-c1cc2c(cn1)nc(NCc1cccc(C)c1)n2C [Compound 586, 6-(2-methoxy-3-pyridyl)-1-methyl-N-(m-tolylmethyl)imidazo[4,5-c]pyridin-2-amine]	30 to 50%
CNc1nc2cnc(-c3cccc(C(=O)NCCN(C)C)c3)cc2n1Cc1ccccc1 [Compound 793, 3-[1-benzyl-2-(methylamino)imidazo[4,5-c]pyridin-6-yl]-N-(2-dimethylaminoethyl)benzamide]	0 to 30%
CNc1nc2cnc(-c3ccc(N(C)C)cc3)cc2n1-c1cccc(F)c1 [Compound 678, 6-(4-dimethylaminophenyl)-1-(3-fluorophenyl)-N-methyl-imidazo[4,5-c]pyridin-2-amine]	> 100%
COc1cc(Nc2nccc3[nH]c(-c4cccc(F)c4)nc23)cc(OC)c1OC [Compound 402, 2-(3-fluorophenyl)-N-(3,4,5-trimethoxyphenyl)-1H-imidazo[4,5-c]pyridin-4-amine]	30 to 50%
CN1CCN(c2ccc(Nc3nccc4[nH]c(-c5ccccc5)cc34)cc2)CC1 [Compound 320, N-[4-(4-methylpiperazin-1-yl)phenyl]-2-phenyl-1H-pyrrolo[3,2-c]pyridin-4-amine]	30 to 50%
c1ccc(-c2nc3c(N4CCOCC4)nccc3[nH]2)cc1 [Compound 338, 4-(2-phenyl-1H-imidazo[4,5-c]pyridin-4-yl)morpholine]	30 to 50%
CN(C)C(=O)c1ccc(-c2cc3cnc(Nc4cccnc4)cc3n2C)cc1 [Compound 47, N,N-dimethyl-4-[1-methyl-6-(3-pyridylamino)pyrrolo[3,2-c]pyridin-2-yl]benzamide]	50 to 100%
COc1ccccc1-c1cc2c(Nc3ccc4c(c3)OCO4)nccc2[nH]1 [Compound 296, N-(1,3-benzodioxol-5-yl)-2-(2-methoxyphenyl)-1H-pyrrolo[3,2-c]pyridin-4-amine]	30 to 50%
Cn1cc(-c2cc3c(cn2)nc(NCc2ccccc2)n3C)cn1 [Compound 624, N-benzyl-1-methyl-6-(1-methylpyrazol-4-yl)imidazo[4,5-c]pyridin-2-amine]	30 to 50%
Cn1c(-c2ccc3ccccc3n2)nc2cnccc21 [Compound 778, 2-(1-methylimidazo[4,5-c]pyridin-2-yl)quinoline]	0 to 30%
Cn1c(NCc2ccccc2)nc2cnc(-c3cccs3)cc21 [Compound 841, N-benzyl-1-methyl-6-(2-thienyl)imidazo[4,5-c]pyridin-2-amine]	30 to 50%
CC(=O)Nc1cccc(Nc2cc3c(cn2)nc(NCc2ccccc2)n3C)c1 [Compound 627, N-[3-[[2-(benzylamino)-1-methyl-imidazo[4,5-c]pyridin-6-yl]amino]phenyl]acetamide]	50 to 100%
COc1cccc(Nc2nccc3c2cc(-c2ccc(C(=O)N(C)C)cc2)n3C)c1 [Compound 212, 4-[4-(3-methoxyanilino)-1-methyl-pyrrolo[3,2-c]pyridin-2-yl]-N,N-dimethyl-benzamide]	30 to 50%
Cn1c(-c2cccnc2)cc2cnc(Nc3cccnc3)cc21 [Compound 87, 1-methyl-N,2-bis(3-pyridyl)pyrrolo[3,2-c]pyridin-6-amine]	50 to 100%
Cc1cccc(CNc2nc3cnc(Nc4cccc(NS(C)(=O)=O)c4)cc3n2C)c1 [Compound 587, N-[3-[[1-methyl-2-(m-tolylmethylamino)imidazo[4,5-c]pyridin-6-yl]amino]phenyl]methanesulfonamide]	50 to 100%

Structure (SMILES)	Emax
CNc1nc2cnc(-c3ccc(OC)cc3)cc2n1Cc1ccc(OC)c(OC)c1 [Compound 672, 1-[(3,4-dimethoxyphenyl)methyl]-6-(4-methoxyphenyl)-N-methyl-imidazo[4,5-c]pyridin-2-amine]	30 to 50%
COCCNc1nc2cnc(-c3cnn(C)c3)cc2n1C [Compound 651, N-(2-methoxyethyl)-1-methyl-6-(1-methylpyrazol-4-yl)imidazo[4,5-c]pyridin-2-amine]	50 to 100%
COc1ccccc1-c1cc2c(N3CCOCC3)nccc2[nH]1 [Compound 193, 4-[2-(2-methoxyphenyl)-1H-pyrrolo[3,2-c]pyridin-4-yl]morpholine]	50 to 100%
CNc1nc2cnc(Nc3ccc(OC)cc3)cc2n1-c1cccc(C(F)(F)F)c1 [Compound 547, N6-(4-methoxyphenyl)-N2-methyl-1-[3-(trifluoromethyl)phenyl]imidazo[4,5-c]pyridine-2,6-diamine]	30 to 50%
CC(=O)c1cccc(Nc2nccc3[nH]c(-c4ccsc4)cc23)c1 [Compound 267, 1-[3-[[2-(3-thienyl)-1H-pyrrolo[3,2-c]pyridin-4-yl]amino]phenyl]ethanone]	50 to 100%
c1ccc(Nc2nccc3[nH]c(-c4ccsc4)cc23)nc1 [Compound 260, N-(2-pyridyl)-2-(3-thienyl)-1H-pyrrolo[3,2-c]pyridin-4-amine]	50 to 100%
CNc1nc2cnc(Nc3ccc(C(=O)N(C)C)cc3)cc2n1-c1ccccc1 [Compound 515, N,N-dimethyl-4-[[2-(methylamino)-1-phenyl-imidazo[4,5-c]pyridin-6-yl]amino]benzamide]	50 to 100%
COc1cc(Nc2cc3c(cn2)cc(-c2cnn(C)c2)n3C)cc(OC)c1OC [Compound 125, 1-methyl-2-(1-methylpyrazol-4-yl)-N-(3,4,5-trimethoxyphenyl)pyrrolo[3,2-c]pyridin-6-amine]	> 100%
Cc1cccc(Nc2cc3c(cn2)nc(-c2ccco2)n3C)c1 [Compound 709, 2-(2-furyl)-1-methyl-N-(m-tolyl)imidazo[4,5-c]pyridin-6-amine]	50 to 100%
CNc1nc2cnc(-c3ccsc3)cc2n1Cc1ccc(OC)c(OC)c1 [Compound 877, 1-[(3,4-dimethoxyphenyl)methyl]-N-methyl-6-(3-thienyl)imidazo[4,5-c]pyridin-2-amine]	30 to 50%
CC(=O)Nc1cccc(Nc2cc3c(cn2)cc(-c2cnn(C)c2)n3C)c1 [Compound 149, N-[3-[[1-methyl-2-(1-methylpyrazol-4-yl)pyrrolo[3,2-c]pyridin-6-yl]amino]phenyl]acetamide]	> 100%
Cn1cc(-c2cc3cnc(Nc4cccc(F)c4)cc3n2C)cn1 [Compound 151, N-(3-fluorophenyl)-1-methyl-2-(1-methylpyrazol-4-yl)pyrrolo[3,2-c]pyridin-6-amine]	50 to 100%
CS(=O)(=O)c1ccc(Nc2cc3c(cn2)ncn3CC2CC2)cc1 [Compound 696, 1-(cyclopropylmethyl)-N-(4-methylsulfonylphenyl)imidazo[4,5-c]pyridin-6-amine]	30 to 50%
Fc1ccc(C(F)(F)F)cc1Nc1cc2[nH]c(-c3cccnc3)cc2cn1 [Compound 79, N-[2-fluoro-5-(trifluoromethyl)phenyl]-2-(3-pyridyl)-1H-pyrrolo[3,2-c]pyridin-6-amine]	30 to 50%
Cn1c(NCc2ccccc2)nc2cnc(-c3cccc(C(=O)O)c3)cc21 [Compound 748, 3-[2-(benzylamino)-1-methyl-imidazo[4,5-c]pyridin-6-yl]benzoic acid]	0 to 30%
CC(=O)Nc1cccc(Nc2cc3[nH]c(-c4cn[nH]c4)cc3cn2)c1 [Compound 117, N-[3-[[2-(1H-pyrazol-4-yl)-1H-pyrrolo[3,2-c]pyridin-6-yl]amino]phenyl]acetamide]	> 100%
CNc1nc2cnc(Nc3ccc(OC)c(OC)c3)cc2n1CCOC [Compound 495, N6-(3,4-dimethoxyphenyl)-1-(2-methoxyethyl)-N2-methyl-imidazo[4,5-c]pyridine-2,6-diamine]	30 to 50%
COc1cc(-c2cc3c(cn2)ncn3Cc2ccc(OC)c(OC)c2)ccc1O [Compound 739, 4-[1-[(3,4-dimethoxyphenyl)methyl]imidazo[4,5-c]pyridin-6-yl]-2-methoxy-phenol]	30 to 50%
c1cncc(-c2cc3cnc(N4CCOCC4)cc3[nH]2)c1 [Compound 77, 4-[2-(3-pyridyl)-1H-pyrrolo[3,2-c]pyridin-6-yl]morpholine]	50 to 100%
c1ccc(Cn2c(-c3ccccc3)cc3cnc(Nc4ccncn4)cc32)cc1 [Compound 184, 1-benzyl-2-phenyl-N-pyrimidin-4-yl-pyrrolo[3,2-c]pyridin-6-amine]	30 to 50%
COc1ccc(CNc2nc3cnc(Nc4ccccc4)cc3n2C)cc1OC [Compound 604, N2-[(3,4-dimethoxyphenyl)methyl]-1-methyl-N6-phenyl-imidazo[4,5-c]pyridine-2,6-diamine]	30 to 50%
